The values below come from patent US8486996B2, “Aroylfuranes and aroylthiophenes” (Basilea Pharmaceutica AG, priority 2006, dated 2013).

Read-outs that look alike come from different tables or passages of the source.

Type in all cases: cell-based
Assay [1] in a line: Hoechst 33342 nuclear staining (48 h read-out). In outline: (§1)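 Adherent cells pre-spread 24 h before dosing, suspension cells dosed at seeding; compounds at 0.001 μM-10 μM final, 48 h at culture conditions. Hoechst 33342 (2-5 μg/ml) added for 30 min, then fluorescence microscopy scoring of apoptotic nuclear fraction and apoptosis-specific morphology, reported as scores A-D.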

The test system of assay [2] is tumor cells. Kind of assay: Hoechst 33342 nuclear staining (48 h read-out). The procedure, abridged: as §1
Assay [3] in a line: MTS proliferation assay (72 h read-out). To be noted: MRC5 cells. The procedure, abridged:
(§2)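 Tumour cells (1.5×10^3–10^4 per well) were seeded 24 h before compound addition, then exposed to 0.001–10 μM final compound for 72 h under culture conditions. MTS reagent was added for a further 3 h, absorbance was read at 492 nm, and results were binned into scores A–D.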
A general note: Tetrazolium dyes change colour on reduction, which living cells bring about.

Assay [4] deals with tumor cells. The assay is described as follows: MTS proliferation assay (72 h read-out). The procedure, abridged:
as §2

A short description of assay [5]: Mitochondrial membrane potential, JC-1 (read-out 48 h). To be noted: PBL, JC-1, 48 h. The procedure, abridged:
(§3)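 Tumor cells were treated with test compounds (adherent cells after 24 h of attachment, suspension cells immediately), medium holding up to 5% DMSO. After 48 h, JC-1 (2-5 μg/ml in added medium) was applied for 30 min. Fluorescence microscopy (FITC/TRITC filters) scored the fraction of cells with dissipated mitochondrial membrane potential as categories A-D.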

For assay [6], the system named is tumor cells. Described as above. To be noted: JC-1, 48 h. In outline: as §3
[7] abbreviates: MRC5 cells, read-out: Hoechst 33342 nuclear staining EC50, MRC5.
Setting [8] is: PBL, read-out: Hoechst 33342 nuclear staining EC50, PBL.
The mark [9] stands for this setting: HeLa cells, read-out: Hoechst 33342 nuclear staining EC50, HeLa.
Where [10] appears, read: Jily cells, read-out: Hoechst 33342 nuclear staining EC50, Jily.
The mark [11] stands for this setting: Jurkat cells, read-out: Hoechst 33342 nuclear staining EC50, Jurkat.
Setting [12] is: HT1080 cells, read-out: MTS proliferation assay IC50, HT1080.
[13] abbreviates: HeLa cells, read-out: MTS proliferation assay IC50, HeLa.
[14] abbreviates: Jily cells, read-out: MTS proliferation assay IC50, Jily.
Where [15] appears, read: HeLa cells, read-out: Mitochondrial membrane potential (read-out 48 h) HeLa.
The mark [16] stands for this setting: Jily cells, read-out: Mitochondrial membrane potential (read-out 48 h) Jily.
Where [17] appears, read: Jurkat cells, read-out: Mitochondrial membrane potential (read-out 48 h) Jurkat.
[18] abbreviates: MCF7 cells, read-out: Mitochondrial membrane potential (read-out 48 h) MCF7.
[19] abbreviates: Jurkat cells, read-out: MTS proliferation assay IC50, Jurkat.
[20] abbreviates: Homo sapiens, MRC5 cells, read-out: Hoechst 33342 nuclear staining EC50, MRC5.
Setting [21] is: Homo sapiens, HeLa cells, read-out: Hoechst 33342 nuclear staining EC50, HeLa.
The mark [22] stands for this setting: Homo sapiens, Jurkat cells, read-out: Hoechst 33342 nuclear staining EC50, Jurkat.
The mark [23] stands for this setting: Homo sapiens, HT-1080, HT1080 cells, read-out: MTS proliferation assay IC50, HT1080.
The mark [24] stands for this setting: Homo sapiens, HeLa cells, read-out: MTS proliferation assay IC50, HeLa.
[25] abbreviates: Homo sapiens, Jurkat cells, read-out: MTS proliferation assay IC50, Jurkat.
Setting [26] is: Homo sapiens, HeLa cells, read-out: Mitochondrial membrane potential (read-out 48 h) HeLa.
[27] abbreviates: Homo sapiens, Jurkat cells, read-out: Mitochondrial membrane potential (read-out 48 h) Jurkat.
[28] abbreviates: Homo sapiens, MCF7 cells, read-out: Mitochondrial membrane potential (read-out 48 h) MCF7.

As for `CCOc1ccc(F)cc1C(=O)c1cc2cc(OC(C)C)ccc2o1` [Example 68], the EC50 is 100 to 1000 nM in assay [1] (setting [7]); more than 1000 nM in assay [1] (setting [8]); 100 to 1000 nM with tumor cells [2] (setting [9]); 100 to 1000 nM in the assay with tumor cells [2] (setting [10]); 100 to 1000 nM in the assay with tumor cells [2] (setting [11]); more than 1000 nM in assay [5]. For the same compound, the EC50 with tumor cells [6] (setting [15]) is more than 1000 nM; with tumor cells [6] (setting [16]), 100 to 1000 nM; in the assay with tumor cells [6] (setting [17]), 100 to 1000 nM; in the assay on tumor cells [6] (setting [18]), more than 1000 nM. In addition, the IC50 (in assay [3]; in the assay with tumor cells [4] (setting [12]); in the assay on tumor cells [4] (setting [13]); with tumor cells [4] (setting [14])) was 10 to 100 nM throughout.
For the compound `CCOc1ccc(F)cc1C(=O)c1cc2cc(OCCN(C)C)ccc2o1` [Example 71], the EC50 (in assay [1] (setting [7]); in assay [1] (setting [8]); in the assay on tumor cells [2] (setting [9]); in the assay on tumor cells [2] (setting [10]); with tumor cells [2] (setting [11]); in assay [5]) was more than 1000 nM each time. Besides, the EC50 with tumor cells [6] (setting [15]), in the assay on tumor cells [6] (setting [16]), in the assay on tumor cells [6] (setting [17]) and in the assay with tumor cells [6] (setting [18]) was more than 1000 nM each time. In addition, the IC50 (in assay [3]; in the assay on tumor cells [4] (setting [12]); in the assay on tumor cells [4] (setting [13]); in the assay on tumor cells [4] (setting [14])) was more than 1000 nM in each case.
On to `CCOc1ccc(F)cc1C(=O)c1cc2cc(COC)ccc2o1` [Example 57], for which the EC50 was 100 to 1000 nM in assay [1] (setting [7]); more than 1000 nM in assay [1] (setting [8]); 10 to 100 nM in the assay on tumor cells [2] (setting [9]); 10 to 100 nM in the assay with tumor cells [2] (setting [10]); 10 to 100 nM in the assay with tumor cells [2] (setting [11]); more than 1000 nM in assay [5]. Moreover, the EC50 fell in the range of 100 to 1000 nM in the assay on tumor cells [6] (setting [15]), 10 to 100 nM with tumor cells [6] (setting [16]), 10 to 100 nM in the assay with tumor cells [6] (setting [17]) and 100 to 1000 nM with tumor cells [6] (setting [18]). Also, the IC50 was 10 to 100 nM in assay [3]; 10 to 100 nM in the assay on tumor cells [4] (setting [12]); 10 to 100 nM with tumor cells [4] (setting [13]); less than 10 nM in the assay with tumor cells [4] (setting [14]); less than 10 nM with tumor cells [4] (setting [19]).
`CCOc1ccccc1C(=O)c1oc2c(C)cccc2c1N` [Example 5, 3-Amino-7-methyl-2-(2-ethoxybenzoyl)-benzofuran]: the EC50 in assay [1] (setting [20]) was more than 1000 nM; in assay [1] (setting [8]), more than 1000 nM; in the assay with tumor cells [2] (setting [21]) it was more than 1000 nM; in the assay on tumor cells [2] (setting [22]), 100 to 1000 nM; in the assay with tumor cells [2] (setting [10]), more than 1000 nM; in assay [5], more than 1000 nM. Moreover, the EC50 in the assay on tumor cells [6] (setting [26]) was more than 1000 nM; with tumor cells [6] (setting [27]), 100 to 1000 nM; in the assay with tumor cells [6] (setting [28]), more than 1000 nM; with tumor cells [6] (setting [16]), more than 1000 nM. The IC50 in assay [3] (Homo sapiens) was more than 1000 nM; in the assay with tumor cells [4] (setting [23]) it was more than 1000 nM; in the assay on tumor cells [4] (setting [24]), more than 1000 nM; in the assay on tumor cells [4] (setting [25]) it was 100 to 1000 nM; in the assay on tumor cells [4] (setting [14]), 100 to 1000 nM.
Consider `COc1ccc2oc(C(=O)c3cccnc3N3CCOCC3)cc2c1` [Example 39, 5-Methoxy-2-(2-morpholino-3-pyridylcarbonyl)-benzofuran], for which the EC50 in assay [1] (setting [20]) is 10 to 100 nM; in assay [1] (setting [8]) it was more than 1000 nM; in the assay with tumor cells [2] (setting [21]), 10 to 100 nM; in the assay on tumor cells [2] (setting [22]) it was 10 to 100 nM; in the assay on tumor cells [2] (setting [10]), 10 to 100 nM; in assay [5], more than 1000 nM. The EC50 in the assay on tumor cells [6] (setting [26]) lay within 10 to 100 nM; in the assay with tumor cells [6] (setting [27]), 10 to 100 nM; in the assay on tumor cells [6] (setting [28]), 100 to 1000 nM; in the assay on tumor cells [6] (setting [16]), 10 to 100 nM. Besides, the IC50 (in assay [3] (Homo sapiens); in the assay on tumor cells [4] (setting [23]); in the assay with tumor cells [4] (setting [24]); in the assay on tumor cells [4] (setting [25]); with tumor cells [4] (setting [14])) was 10 to 100 nM each time.
Regarding `Nc1c(C(=O)c2ccccc2OCCN2CCOCC2)oc2ccc(Cl)cc12` [Example 10], the EC50 (in assay [1] (setting [7]); in assay [1] (setting [8]); in the assay with tumor cells [2] (setting [9]); in the assay with tumor cells [2] (setting [10]); with tumor cells [2] (setting [11]); in assay [5]) was more than 1000 nM each time. Further, the EC50 in the assay with tumor cells [6] (setting [15]), in the assay on tumor cells [6] (setting [16]), in the assay with tumor cells [6] (setting [17]) and with tumor cells [6] (setting [18]) was more than 1000 nM each time. Moreover, the IC50 (in assay [3]; in the assay with tumor cells [4] (setting [12]); with tumor cells [4] (setting [13]); in the assay on tumor cells [4] (setting [14]); with tumor cells [4] (setting [19])) was more than 1000 nM in each case.
